From US6683052B1, “Lipopeptides containing an interferon-γ fragment, and uses thereof in pharmaceutical compositions” (Institut National de la Sante et de la Recherche Medicale …, priority 1998, dated 2004)
Where no end group is shown, it is not given here. The star is where a group is joined. Palmitoyl = CCCCCCCCCCCCCCCC(=O)*

Tests used:
P388D1 = experiment: Induction of class II CMH molecules on P388D1 cell line, flow cytometry; assay type: cell-based, murine; settings: 50 μM, stimulated for 24 hours
Experimental: (§1) Principle: to check the induction of class II CMH molecules on cell lines (P388D1 and WEHI3: murine myelomonocytes) with the above-mentioned peptides.
(§2) Procedure. The cells are cultured the day before at a rate of 3×10^5 cells per well in 24-well culture plates (NUNC). The following day, the cells are stimulated with the various lipopeptide and peptide constructs at a final concentration of 50 μM in 1 ml of medium. After incubation for 24 hours at 37° C. in an atmosphere saturated with 5% CO2, the cells are recovered and incubated for 1 hour at 4° C. with 3 μg of a biotinylated mouse anti-I-Ad monoclonal antibody (Pharmingen, San Diego, USA). After revelation for 30 minutes with FITC streptavidin used at a dilution of 1:100 (Sigma, St. Louis, USA), the expression of class II molecules is determined by flow cytometry.

WEHI3 = experiment: Induction of class II CMH molecules on WEHI3 cell line, flow cytometry; assay type: cell-based, murine; settings: 50 μM, stimulated for 24 hours
Experimental: as §1, §2

splenocytes = experiment: Expression of class II CMH molecules and Fc-γ receptors on splenocytes taken from an animal; assay type: cell-based, Balb/c mouse; settings: 50 μM, 24 hours
Experimental: (§3) Principle: to evaluate the activity of the vectorized agonist on cells taken from an animal and treated in vitro (in order to assess the value of a subsequent in vivo study).
(§4) Procedure. The splenocytes and peritoneal cells taken from an animal (Balb/c mouse) are re-cultured at a rate of 2.5×10^6 splenocytes and […] peritoneal cells per well in 24-well plates (NUNC) stimulated with 50 μM of the different peptides in a final volume of 1 ml. After stimulation for 24 hours, the cells are labelled with the anti IA^d monoclonal antibody described in the preceding paragraph, according to the same protocol. To detect the Fc-γ R, the cells are labelled with 1 μg of a rat anti Fc-γ R monoclonal antibody (Pharmingen, San Diego, USA). Next, the cells are incubated for ½ hour with a rat anti IgG biotinylated polyclonal antibody. The revelation is then carried out with FITC streptavidin used at a dilution of 1:100 (Sigma, St. Louis, USA). The expression of Fc-γ R is determined by flow cytometry.

peritoneal cells = experiment: Expression of class II CMH molecules and Fc-γ receptors on peritoneal cells taken from an animal; assay type: cell-based, Balb/c mouse; settings: 50 μM, 24 hours, flow cytometry
Experimental: as §3, §4

[1] = system: splenocytes taken from mice 129 (Wild type: WT); experiment: Involvement of the IFN-γ receptor: IA^d and Fc-γ R on splenocytes of wild type mice 129; assay type: cell-based; settings: stimulation for 24 hours, flow cytometry
Experimental: as §4
(§5) Principle. to confirm that the biological activity observed was effectively associated with a stimulation of the IFN-γ receptor, we repeated the same experiments, in parallel on splenocytes taken from mice 129 (Wild type: WT) and on cells taken from mice 129 no longer expressing the alpha chain of the IFN-γ receptor (KO mice).
(§6) Procedure. The experimental protocol followed is identical to that described in paragraph 2 above.

[2] = system: cells taken from mice 129 no longer expressing the alpha chain of the IFN-γ receptor (KO mice); experiment: Involvement of the IFN-γ receptor: IA^d and Fc-γ R on cells of mice lacking the alpha chain of the IFN-γ receptor; assay type: cell-based; settings: stimulation for 24 hours, flow cytometry
Experimental: as §4, §5, §6

[3] = system: human colon carcinoma cells (COLO 205); experiment: Induction of HLA-DR on COLO 205 cell line, flow cytometry; assay type: cell-based; settings: COLO 205, 50 μM
Experimental: Principle: human colon carcinoma cells (COLO 205) are analysed for their ability to express HLA-DR after having been stimulated with the various peptide constructs.
Procedure. The cell line COLO 205 is cultured at a rate of 3×10^5 cells per well in a 24-well culture plate (NUNC). The following day, the cells are stimulated with the various peptide constructs at a final concentration of 50 μM in 1 ml of medium, and are incubated at 37° C. for 24 hours. The cells are then recovered and labelled using 3 μg of an anti HLA-DR mouse biotinylated monoclonal antibody (clone L243). After revelation with FITC streptavidin, the cells are analysed by flow cytometry.

[4] = system: human peripheral blood mononuclear cells (PBMC); experiment: Induction of HLA-DR, ICAM-1 and VCAM-1 on human PBMC; assay type: cell-based; settings: 24 hours
Experimental: Principle. In the light of the results obtained on the human cell line and on human primary cultures, the immunostimulatory potential of MuL was evaluated on human cells taken directly from a healthy donor.
Procedure. PBMCs are isolated from a bag of blood and the cells are then cultured and stimulated for 24 hours with 25 and 50 μM of MuSL or MuL in a final volume of 1 ml. The cells are then recovered and labelled for the expression of VCAM-1, ICAM-1 and HLA-DR according to the protocol already described above. Finally, the cells are analysed by flow cytometry.

[5] = system: L929 cells infected with the VSV virus; assay type: cell-based, mouse; settings: 1 to 10 μM
[6] = system: splenocytes stimulated with anti-CD40 and IL-4; experiment: Inhibition of IL-4 activity: anti-CD40 + IL-4 proliferation of splenocytes, tritiated thymidine; assay type: cell-based, Balb/c mice; settings: 10 μM
Text: It is commonly described that the immunomodulatory potential of IFN-γ lies in its ability to polarize the establishment of a type-1 T helper (Th1) response, while at the same time inhibiting the development of a type-2 T helper (Th2) response. This inhibitory action on the polarization of the Th2 response takes place mainly via inhibition of the activity of IL-4. […] The stimulation of splenocytes with an anti-CD40 antibody (antibody directed against a surface cell label: CD40) and IL-4 induces a proliferation of the murine B cells, following a synergistic action between the CD40 and IL-4 stimulation (Hasbold et al. 1994).
The splenocytes taken from Balb/c mice are cultured and stimulated with anti-CD40 (10 μg/ml) and IL-4 (10 U/ml). 10 μM of the synthetic agonist of IFN-γ (MuL) or of its control lipopeptide (MuSL) are added. After stimulation for 24 hours, tritiated thymidine is added at a rate of 0.5 μCurie per well. After incubation for 18 hours, the cells are filtered off and the incorporation of tritiated thymidine is evaluated. This incorporation is proportional to the cell proliferation.

murine splenocytes = experiment: Induction of class II CMH molecules (IA^b) on murine splenocytes by lipopeptide fragments (FIG. 12A); assay type: cell-based, 129 Sv mice; settings: murine splenocytes, 24 hours, different concentrations
Experimental: (§7) Fresh splenocytes are obtained from 7-week-old female 129 Sv mice. The COLO 205 human colon carcinoma lines are obtained from the ATCC (American Type Culture Collection). The splenocytes and COLO 205 cells are maintained in RPMI 1640 (Gibco BRL, Courbevoie, France), supplemented with 10% FCS (Gibco BRL), sodium pyruvate (Sigma, St. Louis, USA) and incubated at 37° C. in 5% CO2.
(§8) The cells were stimulated for 24 hours with different concentrations of MuL, L-mIFNγ 113-132, L-mIFNγ 122-132 or MuSL. The murine splenocytes and COLO 205 cells were labelled for the expression of II MHC with 1 μg of anti-mouse IA^b FITC monoclonal antibody (mAb) (Pharmingen, San Diego, USA) and 10 μl of anti-HLA-DR clone TAL.1B5 mouse FITC mAb (Cymbus Biotechnology Ltd, Hants, UK), respectively. A negative control mouse FITC IgG1 (DAKO S. A., Trappes, France) was used as control isotype. The cells were incubated for 1 hour at 4° C. in PBS, 10% FCS and then washed, and the expression of II MHC was analysed by flow cytometry using a Coulter EPILS II cytometer (Coulter, Hialeah, Fla., USA) at a rate of 10,000 events per sample.
(§9) FIG. 12: Induction of class II CMH molecules by human or murine cells stimulated with lipopeptides derived from IFN-γ. The murine splenocytes (A) and the COLO 205 human cell line (B) were incubated for 24 hours with different concentrations of lipopeptides derived from IFN-γ. The cells were labelled with a monoclonal antibody directed against the class II CMH molecules, and analysed by flow cytometry. The ratio between the average fluorescence intensity of the cells treated with the lipopeptides and between the average fluorescence intensity of the untreated cells is indicated on the y-axis. The lipopeptide concentration is indicated in μM on the x-axis; MuL: solid circles; MuSL : hollow circles; L-mIFN 113-132: triangles; L-mIFN 122-132: X.

COLO 205 human cell line = experiment: Induction of HLA-DR on COLO 205 cells by lipopeptide fragments (FIG. 12B); assay type: cell-based; settings: COLO 205, 24 hours, different concentrations
Experimental: as §7, §8, §9

MuSL: control "scrambled" lipopeptide: MuL in which the order of the amino acids has been rearranged, Ac-K(Pam) (Ac-K(Palmitoyl)PSRENQNAVKIQKLSVVLRREQKHRVERLAFRNQSLPF)
percentage of class II CMH detected by flow cytometry, P388D1 (P388D1): 13%
percentage of class II CMH detected by flow cytometry, WEH1 (WEHI3): 15%
splenocytes II CMH (%) (splenocytes; flow cytometry): 14%
splenocytes RFc (%) (splenocytes; flow cytometry): 15%
increase of IA^d and of Fc-γ R on the treated cells (splenocytes; splenocytes and peritoneal cells): no notable activity
peritoneal cells II CMH (%) (peritoneal cells): 13%
peritoneal cells RFc (%) (peritoneal cells): 20%
WT mice II CMH (%) [1]: 4%
WT mice RFc (%) [1]: 2%
KO mice II CMR (%) [2]: 4%
KO mice RFc (%) [2]: 3%
induction of the expression of HLA-DR [3]: no activity
% HLA-DR ([3]; 24 hours, flow cytometry): 8.9%
percentage of ICAM-1 detected on PBMCs ([4]; 25 μM): 29.4%
percentage of VCAM-1 detected on PBMCs ([4]; 25 μM): 39.7%
percentage of HLA-DR detected on PBMCs ([4]; 50 μM): 58.3%
percentage of ICAM-1 detected on PBMCs ([4]; 50 μM): 32%
percentage of VCAM-1 detected on PBMCs ([4]; 50 μM): 86.9%
effect on viral lysis (FIG. 2) [5]: no effect on viral lysis
effect on the synergistic anti-CD40 + IL-4 proliferation (FIG. 4) [6]: no effect
increase in class II CMH molecules (FIG. 12A) (murine splenocytes): neither L-mIFN-γ 122-132 nor MuSL are active
increase in class II CMH molecules (FIG. 12B) (COLO 205 human cell line): neither L-mIFN-γ 122-132 nor MuSL are active
